Assay results taken from US7456274B2, “Inhibition of metallo-β-lactamase” (priority 2003, dated 2008).
“Also recorded” adds a separate entry of the source. Like-named read-outs stand apart in the source and are kept apart here.

Legend:
[1] = biological target: B. cereus 5/B/6 metallo-β-lactamase (Bacillus cereus, UniProt P14488); format: biochemical; details: for time dependence of the reversible inhibition: 50 mM MOPS, cephalosporin C; for time dependence of the reversible inhibition / IC50: pH=7.0; for inhibition pattern from steady-state kinetic study: Lineweaver-Burk plot; for IC50: enzyme preincubated 15 min at 30° C. in 50 mM MOPS, 4 mM cephalosporin C
Chain of B. cereus 5/B/6 metallo-β-lactamase (P14488 30-256): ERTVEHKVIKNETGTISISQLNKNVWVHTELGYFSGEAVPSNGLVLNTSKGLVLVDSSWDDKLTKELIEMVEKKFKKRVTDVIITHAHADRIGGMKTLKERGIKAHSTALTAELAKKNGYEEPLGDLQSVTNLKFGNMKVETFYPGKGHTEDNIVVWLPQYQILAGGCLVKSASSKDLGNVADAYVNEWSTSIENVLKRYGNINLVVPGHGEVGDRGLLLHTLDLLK

[2] = biological target: T1, bovine carboxypeptidase A (Bos taurus, UniProt P00730); experiment: Bovine carboxypeptidase A assay (hippuryl-L-phenylalanine hydrolysis), specificity test; format: biochemical; details: 25 nM; 1 mM hippuryl-L-phenylalanine; 25° C., pH=7.5
T1 construct: purchased Sigma
T1 sequence (P00730 111-419): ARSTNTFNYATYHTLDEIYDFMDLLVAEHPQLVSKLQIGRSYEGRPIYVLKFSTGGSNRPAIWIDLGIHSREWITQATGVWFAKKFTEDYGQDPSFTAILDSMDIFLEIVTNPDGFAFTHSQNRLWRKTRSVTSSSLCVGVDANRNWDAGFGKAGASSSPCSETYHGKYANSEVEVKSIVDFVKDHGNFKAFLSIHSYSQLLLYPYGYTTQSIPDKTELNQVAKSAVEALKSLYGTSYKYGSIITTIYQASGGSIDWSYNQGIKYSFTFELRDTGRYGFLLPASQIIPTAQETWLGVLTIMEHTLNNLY
Description: Method for assay of bovine carboxypeptidase A. The assay of bovine carboxypeptidase A is based on the method of Folk and Schirmer (1963). The rate of hydrolysis of hippuryl-L-phenylalanine is determined by monitoring the increase in absorbance at 254 nm ([…], pH=7.5). The enzyme was dissolved in 10% lithium chloride to a concentration of 1-3 units per mL. Hippuryl-L-phenylalanine (0.001 M) was dissolved in 0.05 M TrisHCl, pH=7.5 with 0.5 M sodium chloride. In a 1 cm of cuvette, 1.0 mL of substrate was added and incubated in the spectrophotometer at 25° C. for 3-4 minutes to reach temperature equilibration and establish blank rate. Fifty μL of diluted enzyme was added to record increase in A254. The enzyme was preincubated with/without the inhibitor in the buffer for 15 min. at 25° C.

[3] = biological target: metallo-β-lactamase from B. fragilis (Bacteroides fragilis, UniProt P25910); details: NMR characterization; Scrofani et al. (1999); cited from earlier work
Chain of metallo-β-lactamase from B. fragilis (P25910 19-249): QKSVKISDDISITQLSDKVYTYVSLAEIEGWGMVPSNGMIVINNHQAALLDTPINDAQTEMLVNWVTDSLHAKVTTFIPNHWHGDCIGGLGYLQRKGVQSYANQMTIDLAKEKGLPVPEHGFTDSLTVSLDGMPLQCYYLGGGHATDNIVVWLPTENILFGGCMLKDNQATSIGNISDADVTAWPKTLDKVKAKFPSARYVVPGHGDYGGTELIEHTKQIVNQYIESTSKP

[4] = biological target: metallo-β-lactamase from Stenotrophomonas maltophilia (Stenotrophomonas maltophilia, UniProt P52700); details: Yang and Crowder (1999); cited from earlier work
Chain of metallo-β-lactamase from Stenotrophomonas maltophilia (P52700 34-290): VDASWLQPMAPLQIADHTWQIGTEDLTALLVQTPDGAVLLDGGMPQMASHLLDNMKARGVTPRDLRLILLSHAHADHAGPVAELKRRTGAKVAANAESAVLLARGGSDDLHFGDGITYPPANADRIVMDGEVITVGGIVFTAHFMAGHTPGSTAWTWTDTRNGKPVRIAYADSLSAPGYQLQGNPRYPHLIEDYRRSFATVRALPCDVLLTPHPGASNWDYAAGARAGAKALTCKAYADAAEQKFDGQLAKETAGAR

class B β-lactamases = details: cited from earlier work
[5] = biological target: metallo-β-lactamases (Bacillus cereus enzyme) (Bacillus cereus, UniProt P04190); details: Mollard et al. (2001); cited from earlier work
Chain of metallo-β-lactamases (Bacillus cereus enzyme) (P04190 31-257): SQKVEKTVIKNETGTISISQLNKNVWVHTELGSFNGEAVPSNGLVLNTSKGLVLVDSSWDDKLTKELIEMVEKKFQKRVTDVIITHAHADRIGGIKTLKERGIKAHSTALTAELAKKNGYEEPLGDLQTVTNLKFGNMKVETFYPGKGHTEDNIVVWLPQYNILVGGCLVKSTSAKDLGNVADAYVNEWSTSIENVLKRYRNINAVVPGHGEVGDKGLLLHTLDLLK

[6] = intercept replot of Lineweaver-Burk data, read-out: Ki′ (dissociation constant for the inhibitor from the enzyme-substrate-inhibitor complex)
[7] = slope replot of Lineweaver-Burk data, read-out: Ki (dissociation constant for the inhibitor from the enzyme-inhibitor complex)

Compound	inhibition pattern from steady-state kinetic study [1]	IC50 [1] [nM]	Ki [1, 6] [nM]	Ki [1, 7] [nM]	other results
5′-d(AACCAAACTTGGATCGGTGCACATGTCGAA)-3′ [30-mer]	noncompetitive inhibition	1.2	11	0.92	time dependence of the reversible inhibition ([1]; 0.5 nM the 30-mer): time-independent; also recorded: not time-dependent; effect on the activity of the carboxypeptidase A [2]: no effect; also recorded: did not show any inhibition
5′-d(CCAAACTTGG)-3′ [10-mer]	noncompetitive inhibition	–	–	–	time dependence of the reversible inhibition ([1]; 1.0 nM of the 10-mer): time-independent; also recorded: not time-dependent; fold lower Ki than the Ki reported for R-thiomandelic acid ([1]; vs. Mollard et al. (2001)): 290 fold; effect on the activity of the carboxypeptidase A [2]: no effect; also recorded: did not show any inhibition
OCCS [2-mercaptoethanol, reference compound]	noncompetitive inhibition	4000	4000	2000	–
CC1(C)SCN(C(=O)[C@@H](CS)Cc2ccccc2)[C@H]1C(=O)O [3-[2′-(S)-benzyl-3′-mercaptopropanoyl]-4-(S)-carboxy-5,5-dimethylthiazolidine]	–	–	–	–	binding to metallo-β-lactamase [3]: “tightly” binds
O=C(O)CN(CCN(CC(=O)O)CC(=O)O)CC(=O)O [EDTA, reference compound]	noncompetitive inhibition	3100	2900	750	–
O=C(Cc1ccccc1)NCCS [N-(2′-mercaptoethyl)-2-phenylacetamide]	–	–	–	–	Ki [4]: 50000 ± 3000 nM; type of inhibition [4]: competitive inhibitors
O=C(O)[C@H]1/C(=C/CO)O[C@@H]2CC(=O)N21 [clavulanic acid]	–	–	–	–	inhibition of class B β-lactamases (class B β-lactamases): do not inhibit
O=C1C[C@H]2SC=CN12 [penem]	–	–	–	–	inhibition of class B β-lactamases (class B β-lactamases): do not inhibit
N-benzylacetyl-D-alanylthioacetic acid	–	–	–	–	Ki [4]: 1600 ± 300 nM; type of inhibition [4]: competitive inhibitors
R-thiomandelic acid	–	–	–	–	Ki [5]: 90 nM
